The values that follow come from patent US11000543B2, “Substances containing AuCs and preparation method and use thereof” (Shenzhen Profound-View Pharma Tech Co., Ltd, priority 2017, dated 2021).

In assay [1] the target is T1, Aβ(1-40) (Homo sapiens, UniProt P05067).
T1 construct: Freeze-dried powder of amyloid polypeptide Aβ(1-40) (Invitrogen Corp.); purchased Invitrogen Corp
The experiment in a line: In vitro Aβ(1-40) aggregation kinetics, ThT fluorescent labeling method. It is filed as biochemical. Conditions: L-NIBC 1.0 and 10.0 ppm; 20 μM Aβ(1-40), 37° C. The source says: Thioflavin T (abbreviation: ThT) is a dye specifically for dyeing amyloid fibers. […] When it encounters amyloid polypeptides or proteins with a fiber structure, it will immediately couple with the amyloid polypeptides or proteins and its fluorescence intensity will increase exponentially. Just because of this property, ThT is widely used as a marker to monitor amyloidosis of peptides or proteins. The fibrosis process of Aβ(1-40) is also a nucleation-controlled polymerization process. Therefore, the growth curve of Aβ(1-40) fiber measured by ThT fluorescent labeling method is mainly divided into three stages: Initial stage, growth stage and platform stage. […] All the Aβ(1-40) PBS solutions for the experiments were prepared freshly. […] The samples were incubated continuously in a 96-well plate at 37° C. by ThT fluorescent labeling method, and monitored the fluorescence intensity by microplate reader once every 10 minutes.

Assay [2] deals with T1, Aβ(1-40). The experiment in a line: AFM topography of Aβ(1-40) after 48 h coincubation. Format: biochemical. Conditions: coincubated for 48 h. As to the method: Panel A is the AFM topography after Aβ(1-40) was incubated alone for 48 h. Panel B is an AFM topography after Aβ(1-40) was coincubated with L-NIBC for 48 h. Panel C and panel D are AFM topographies after Aβ(1-40) was coincubated with gold nanoparticles with an average particle size of 6.0 nm and 3.6 nm respectively (modified with L-NIBC) for 48 h. And […] is an AFM topography after Aβ(1-40) was coincubated with AuCs in an average particle size of 1.8 nm (modified with L-NIBC) for 48 h.

In assay [3] the test system is SH-SY5Y neuroblastoma cell line. Put plainly: Aβ induced AD cell model, cell viability by CCK-8. It is filed as cell-based. Conditions: 20 μM Aβ(1-40), 24 h; L-NIBC 20 ppm; particles 0.01-20 ppm.
Method: The cell viability was used as an index in the experiment of this embodiment. […] The cells used in the experiment were SH-SY5Y neuroblastoma cell line. […] Specific method:
1) SH-sy5y cells (cells had passed to the sixth generation) in logarithmic growth phase were diluted with complete medium (MEM+10% FBS+1% penicillin−streptomycin) to get a cell suspension in a density of 5×10^4/mL. The suspension was inoculated 200 μL per well into a 96-well plate, and cultivated in an incubator with 5% CO2 at 37° C. A sample was added when the cells attached to the wells.
2) 100 μL ligand-modified AuCs samples or ligand-modified gold nanoparticles samples, at different particle sizes and at concentrations of 0.04 ppm, 0.4 ppm, 4 ppm, 20 ppm, 40 ppm and 80 ppm respectively, which were dissolved by maintenance medium (MEM+2% FBS+1% penicillin-streptomycin) were added into the incubated suspension obtained from Step 1). After incubating in the incubator for 2 h, 100 μL 80 μM Aβ(1-40) was added, and then the mixture was incubated in the incubator for 24 h. […] The culture medium was removed, maintenance medium (MEM) containing 10% CCK-8 at 100 μL/well was added and was incubated for 4 h, the absorbance of each well at 450 nm was measured to reflect the prevention and treatment effects of ligand-modified AuCs on Aβ(1-40) lesion.
The target of assay [4] is T2, α-syn (Homo sapiens, UniProt P37840).
T2 construct: purchased Bachem Corp
The experiment in a line: In vitro α-syn aggregation kinetics, ThT fluorescent labeling method. It is filed as biochemical. Conditions: L-NIBC 1.0 and 10.0 ppm; 35 μM α-syn, 37° C. The source says: Thioflavin T (abbreviation: ThT) is a dye for dyeing amyloid fibers specifically. […] When it encounters amyloid polypeptide or protein with a fiber structure, it will immediately couple with the amyloid polypeptides or proteins and its fluorescence intensity will increase exponentially. For this reason, ThT is widely used as markers to monitor amyloidosis of peptides or proteins. This embodiment utilizes ThT fluorescent labeling method to monitor the kinetics process of fibrosis aggregation of α-syn with the existence of AuCs. The specific experiment method was as follows:
Pretreatment of α-syn monomers: Freeze-dried powder (Bachem Corp.) of α-syn was dissolved in HFIP to obtain a 1 g/L α-syn solution. The solution was incubated at room temperature for 2-4 h after sealing, then blowed to dry HFIP by high-purity nitrogen in a fume hood. […]
Sample preparation and detection: Ligand-modified AuCs in different concentrations listed in Table 1 were added to 35 μM α-syn PBS solutions respectively, and incubated continuously in a 96-well plate at 37° C., by ThT fluorescent labeling method, and were monitored the fluorescence intensity by microplate reader once every 10 minutes. The kinetic process of α-syn aggregation was characterized through the change of fluorescence intensity of ThT. […]

T1 sequence (P05067 672-711 limits assumed): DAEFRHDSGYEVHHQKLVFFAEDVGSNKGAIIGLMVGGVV

On to `CC(C)C(=O)N[C@@H](CS)C(=O)O` [L-NIBC, N-isobutyryl-L-cysteine], for which the “effect on Aβ(1-40) amyloidosis kinetics” value in assay [1] was “no obvious effect”. Besides, the “Aβ(1-40) fibers in AFM topography” value in assay [2] is given as “no obvious effect”. Further, in assay [3], the “effect on cell viability in Aβ-induced AD cell model” value is recorded as “did not improve cell viability”. For the same compound, the “effect on kinetics of α-syn aggregation” value in assay [4] is “did not have an obvious effect”.
